Test results reported in patent US4438091A, “Bromhexine delayed-release pharmaceutical form” (Dr. Karl Thomae GmbH, priority 1981, dated 1984).
≈ marks a conversion by molar mass, not a printed value. Entries after “also recorded” stand apart in the source; their conditions may differ. Where a name gives a salt, the structure may show the parent alone.

What was measured:
[1] = Absorption of bromhexine from the intestinal tract (preliminary tests in vivo); conditions: for absorption from the intestinal tract: micronized, introduced by preparation resistant to gastric juices
Excerpt: In view of the obvious advantages of producing a delayed-release form of bromhexine, there has been no shortage of attempts to produce such a preparation. […] In cases such as this, success is often achieved if the active substance is mixed with an emulsifier which then releases the active substance in solubilized form in the intestinal juices.

[2] = cited from earlier work
[3] = Solubility of bromhexine base in phosphate buffer / aqueous medium; format: physicochemical; conditions: for solubility: aqueous buffer
Excerpt: If, for example, bromhexine hydrochloride is made into the form of a matrix-type delayed-release tablet (Example 11), bromhexine can only be released, in dissolved form, from this preparation as long as the tablet is in the acidic medium of the stomach. […] The intestinal juices momentarily buffer the acid salts to form a substantially insoluble bromhexine base.

| SMILES | absorption from the intestinal tract [1] | frequency of coughing, total number of coughing spasms and intensity of the cough ([2]; in vivo) | therapeutic effect in diseases of the respiratory tract ([2]; pathological change in secretion, single or double blind testing) | breathing ([2]; patients' finding) | absorption rate along the intestine ([1]; dissolved bromhexine in various intestinal sections, duodenum to colon) | Solubility in water ([3]; above a pH of 4 / from pH 4.0) | Solubility in aqueous medium ([3]; acidic range) | solubility ([3]; pH 4.5, phosphate buffer) [µg/mL] | solubility ([3]; pH 5.0, phosphate buffer) [µg/mL] | solubility ([3]; pH 6.0, phosphate buffer) [µg/mL] | solubility ([3]; pH 6.5, phosphate buffer) [µg/mL] | solubility ([3]; pH 7.0, phosphate buffer) [µg/mL] |
| --- | --- | --- | --- | --- | --- | --- | --- | --- | --- | --- | --- | --- |
| CN(Cc1cc(Br)cc(Br)c1N)C1CCCCC1 [micronized bromhexine hydrochloride] | did not result in any appreciable absorption |  |  |  |  |  |  |  |  |  |  |  |
| CN(Cc1cc(Br)cc(Br)c1N)C1CCCCC1 [bromhexine, N-cyclohexyl-N-methyl-(2-amino-3,5-dibromobenzyl)-amine] |  | favorably affected | often been confirmed | breathing is eased | decreases sharply from the duodenum to the colon; also recorded: absorbed particularly quickly in the uppermost section of the intestines; also recorded: decreases significantly in the lower intestinal regions | virtually insoluble in water; also recorded: virtually insoluble from pH 4.0 | soluble only in the acidic range | 650 (≈ 1730 µM) | 150 (≈ 399 µM) | 30 (≈ 79.8 µM) | 10 (≈ 26.6 µM) | 3 (≈ 7.98 µM) |
| CN(Cc1cc(Br)cc(Br)c1N)C1CCCCC1 [micronized bromhexine] | not absorbed |  |  |  |  |  |  |  |  |  |  |  |
